Measurements from article PMC9585585, “Discovery of Small-Molecule Allosteric Inhibitors of PfATC as Antimalarials” (Journal of the American Chemical Society, 2022).

Legend:
PfATC [1] = target: T1, PfATC (Plasmodium falciparum, UniProt A0A5K1K910); assay: Microscale thermophoresis (MST); type: binding; conditions: n = 3
From the text: (§1) 464Data collection, processing and refinement. All the diffraction data sets were collected using
(§2) 465synchrotron radiation wavelength 1.033200 Å at DESY beamline P11. The data collected for
(§3) 466PfATC crystals grown in presence of fragments and compounds were processed using XDSAPP 25
(§4) 467and Aimless 26, and the structures were solved and initially refined using the DIMPLE pipeline
(§5) 468within CCP4 suite 26 with coordinates of the unliganded PfATC (5ILQ) as a starting model. The
(§6) 469final refinement included manual rebuilding in coot 27 and Refmac5 28. The resulting crystal
(§7) 470structures were deposited in PDB 29. Data collection and processing statistics are show in Table
(§8) 472Differential Scanning Fluorimetry (DSF). The purified PfATC was incubate with 5000 × Sypro
(§9) 473Orange (Invitrogen) and dilution it to 1:400 stock of dye in assay buffer (50 mM Tris-HCl pH =8.0
(§10) 474and 300 mM NaCl). Each reaction consisted of 2 µL compound (10 mM stock in 100% DMSO), 5
(§11) 475µL PfATC-Sypro orange mixture and 43 µL assay buffer. Final protein assay concentration was
(§12) 4765µM, final DMSO concentration war […]. After incubation for 20 min at 20 ℃, the samples
(§13) 477were hated from 25℃ to 95℃ at a rate of 0.5 ℃ min -1. The inflection points of the melting curves
(§14) 478were determined using BioRad CSV 96 control software and processed & plotted by GraphPad.
(§15) 479Microscale Thermophoresis (MST). […]

HepG2 cells = assay: Cytotoxicity on cultured human HepG2 cells; type: cell-based; conditions: at a concentration of 100 μM
PfATC [2] = target: T1, PfATC; assay: Differential scanning fluorimetry (DSF); type: binding; conditions: PfATC 5 µM, read-out: ΔTM of PfATC (thermal stabilization)
From the text: as §1, §2, §3, §4, §5, §6, §7, §8, §9, §10, §11, §12, §13, §14, §15

[3] = Insolubility interpreted from deviation of the MST curve; type: physicochemical; conditions: pH 8, aqueous with cosolvent or surfactant or cyclodextrin, kinetic from dmso stock, MST buffer, read-out: concentration in excess of which the compound is insoluble
Method: We also modified the amino group and generated a new scaffold, suspecting that varying the R1, R2, and R3 groups would generate a series of compounds with optimized binding and improved inhibition (BDAs, Supporting Information Table 1). We evaluated the BDA series in an in vitro activity assay against malarial and human ATC (Figure 3A, Supporting Information Table 1). […] Significant deviations from the sigmoidal distribution of the MST curve are present at concentrations higher than 10 μM, which we have interpreted as indicative of BDA-04 insolubility at concentration in excess of 10 μM. To characterize the mechanism of inhibition by BDAs, enzyme activity assays were performed using BDA-04 as an exemplar (Figure 3F,G).
as §1, §2, §3, §4, §5
469final refinement included manual rebuilding in coot 27 and Refmac5 28. The resulting crystal […]
478were determined using BioRad CSV 96 control software and processed & plotted by GraphPad. […]

T1 sequence (A0A5K1K910 entry or part of it): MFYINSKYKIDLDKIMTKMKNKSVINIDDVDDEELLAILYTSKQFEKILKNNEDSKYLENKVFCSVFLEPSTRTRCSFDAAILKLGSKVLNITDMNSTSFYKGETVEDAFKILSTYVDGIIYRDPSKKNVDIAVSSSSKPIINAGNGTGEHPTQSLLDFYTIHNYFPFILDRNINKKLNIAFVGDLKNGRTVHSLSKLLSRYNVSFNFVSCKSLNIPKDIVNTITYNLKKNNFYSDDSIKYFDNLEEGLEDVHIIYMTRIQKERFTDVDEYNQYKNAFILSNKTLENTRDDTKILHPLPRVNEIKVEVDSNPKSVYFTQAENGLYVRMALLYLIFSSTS

Kd (PfATC [1]): 0.0663 µM
ΔTm (PfATC [2]): 22.8 °C
solubility at 10 min [3]: > 10 µM
Structure (SMILES): CC(C)(C)OC(=O)Nc1sc(-c2ccccc2)cc1C(=O)NCCc1ccccc1 [BDA-04]
cytotoxic effect on cultured human HepG2 cells (HepG2 cells): no cytotoxic effect
